The test system of one data set is Adenovirus 5 (AdV5). In words: Cytopathic effects (CPE) reduction assay, AdV5 in HFF cells, 384-well. Format: cell-based, human adenovirus 5 (AdV5). The following applies: for selectivity ratio: human, adenovirus 5, HFF cells, read-out: SI (selective index, CC50/EC50). (Protection from cytopathic effect is a common read-out in antiviral testing.)
The test system of a further data set is AdV3. In words: Plaque reduction antiviral IC50 assay in A549, AdV3. The conditions noted are these: Human mastadenovirus B. The data set is classed as cell-based, adenovirus 3. As to the method: (§1) The effectiveness of filociclovir to inhibit a number of adenovirus strains associated with conjunctivitis were tested in an in vitro assay. To determine the in vitro IC50 concentrations, i.e., the concentration of filociclovir that inhibits adenovirus plaque formation by 50%, filociclovir and cidofovir (CDV) were tested against a panel of 7 ocular types of adenovirus.
(§2) 42 A549 24-well multiplates (1 per each drug and each virus strain) were prepared. 7 adenovirus serotypes were tested at a time. Virus dilutions from known titer of stock viruses (approx. 100 PFU/0.1 ml) were prepared with AdV3 L, AdV4 H, AdV5 M, AdV7a J, AdV8 E, AdV 19/64 K, and AdV37 ATCC. 0.1 ml (containing approx. 100 PFU) of each of the 7 viruses were plated onto all 24 wells of an A549 multiplate and incubated at 37° C. in a 5% CO2 water-vapor atmosphere for 3 hours.
(§3) Dilutions of filociclovir and cidofovir were prepared at 400, 40, 4.0, 0.4, 0.04, and 0.004 μM in 2× nutrient tissue culture media, following the dilution protocol: 7.5 ml of each of filociclovir and cidofovir dilution was added to a tube and 22.5 ml of methylcellulose in outgrowth medium (OG) was then added to each tube. 1 ml of each filociclovir and cidofovir dilutions was added to an additional 15 ml tube and 3 ml of OG was added to each tube. This was the overlay for the Adv8 plates. Normal methylcellulose overlay medium without any drug was used for the control wells for each plate.
(§4) For each virus plate, 3 wells were overlaid with each of the 6 final filociclovir and cidofovir concentrations (100, 10, 1.0, 0.1, 0.01, and 0.001 μM) and 6 wells with the control media. Plates were incubated at 37° C. in a 5% CO2 water-vapor atmosphere until plaques were visible. When plaques became visible, plates were stained with gentian violet and plaques were counted at 25λ using a dissecting microscope. The IC50 concentrations were determined from Fitted Line Plot regression analysis using Minitab. All assays were performed in triplicate.

Another data set has as its system AdV4. Description: Plaque reduction antiviral IC50 assay in A549, AdV4. Format: cell-based, adenovirus 4. The following applies: Human mastadenovirus E. The method, then: as §1, §2, §3, §4
Data set [1] relates to AdV5. Description: Plaque reduction antiviral IC50 assay in A549, AdV5. The conditions noted are these: Human mastadenovirus C. Format: cell-based, adenovirus 5. As to the method: as §1, §2, §3, §4
The test system of the next data set is AdV8. Description: Plaque reduction antiviral IC50 assay in A549, AdV8. Format: cell-based, adenovirus 8. The method, then: as §1, §2, §3, §4
The subject of a further data set is AdV37. In words: Plaque reduction antiviral IC50 assay in A549, AdV37. The conditions noted are these: unidentified adenovirus. Format: cell-based, adenovirus 37. The method, then: as §1, §2, §3, §4
A further data set concerns AdV64. Description: Plaque reduction antiviral IC50 assay in A549, AdV64. Format: cell-based, adenovirus 19/64. The conditions noted are these: unidentified adenovirus. As to the method:
as §1, §2, §3, §4

Data set [2] has as its system panel of ocular adenovirus types (Ad3, Ad4, Ad5, Ad7a, Ad8, Ad19/64, and Ad37). Description: Plaque reduction antiviral IC50 assay, whole panel of ocular adenovirus types. Format: cell-based, adenovirus Species B, C, D, and E. The conditions noted are these: unidentified adenovirus. The method, then:
as §1, §2, §3, §4

The test system of data set [3] is AdV5. Description: Adenovirus/NZW rabbit ocular model. The data set is classed as in vivo, New Zealand White (NZW) rabbit. The method, then:
The ability of filociclovir to inhibit adenovirus-related conjunctivitis was tested in a New Zealand White (NZW) rabbit ocular model.
20 NZW rabbits (1.1-1.4 kg) were given general anesthesia with ketamine & xylazine, topical anesthesia with proparacaine, and corneal scarification (12 cross-hatched strokes of a #25 needle) followed by inoculation in both eyes with 50 μl of […] of AdV5 M (6.0×10^8 PFU/ml). Eyes were closed and gently rubbed for 5 seconds to ensure contact of the virus on all ocular surfaces. All rabbits were treated with analgesia in the form of intramuscular injections of ketoprofen (1.5 mg/kg).
Beginning 2 hours after inoculation, all eyes were cultured for virus. Following topical anesthesia with proparacaine, a single cotton-tipped swab was placed into the lower fornix of each eye, rolled over the cornea into the upper fornix to recover adenovirus from the tear film and corneal and conjunctival surfaces. The swabs from each eye were placed individually into tubes containing 1 ml of outgrowth media and were frozen at −80° C. pending plaque assay.
On Day 1, the rabbits were divided into 4 treatment groups for drug administration as set forth in the chart below. The four treatment groups were 0.5% Filociclovir; 0.1% Filociclovir; 0.5% cidofovir; and the negative vehicle control (10% 2-Hydroxpropyl)-β-cyclodextrin, 0.2% cremophore).
Treatments began on Day 1 and drops were administered with at least a 2-hour interval between drops. The eyes of each rabbit were cultured for virus on days 1, 3, 4, 5, 7, 9, 11, and 14 post-inoculation (PI) at least 1 hour after the final drop. At various times during the course of the experiment, AdV5 titers were determined on A549 cell monolayers using a standard plaque assay. The ocular cultures to be titered were thawed, diluted (1:10) and inoculated onto A549 monolayers. The virus was adsorbed for 3 hours. Following adsorption, 1 ml of media plus 0.5% methylcellulose was added to each well, and the plates were incubated at 37° C. in a 5% CO2-water vapor atmosphere. After 7 days incubation, the cells were stained with 0.5% gentian violet, and the numbers of plaques were counted under a dissecting microscope (25λ). The viral titers were then calculated and expressed as plaque-forming units per milliliter (PFU/ml). The data were analyzed statistically using True Epistat and/or Minitab statistical software. Outcome measures included Daily AdV5-Positive Cultures per Total (FIG. 9), Duration of Shedding (FIG. 10) and Daily Viral Titers (FIG. 11). Significance was established at the p≤0.05 confidence level.

Where [4] appears, read: read-out: mean IC50 concentrations across the panel (upper bound).
Where [5] appears, read: read-out: range of mean IC50 concentrations across the panel.
[6] abbreviates: 0.1% topical 4 times daily for 10 days, compared with Vehicle control.
The mark [7] stands for this setting: 0.5% filociclovir compared with 0.5% cidofovir.
[8] abbreviates: 0.5% filociclovir compared with the 0.1% filociclovir group.
[9] abbreviates: 0.5% topical 4 times daily for 10 days, compared with Vehicle control.
The mark [10] stands for this setting: 0.5% topical 2 times daily for 7 days, compared with Vehicle control.

The structures appear in SMILES notation. Where two headings read alike, the source gives them in different places. Some results are limits rather than exact numbers.

Procedure for Adenovirus 5 (AdV5): Antiviral and cytotoxicity data were obtained in a series of three to five separate experiments for each virus to provide an accurate estimate of antiviral activity and statistical data. Each assay included positive and negative control compounds as well as infected and uninfected controls to ensure the integrity of the experiment.
The CPE reduction assays were performed in monolayers of human foreskin fibroblast (HFF) cells (5000/well) in 384-well plates in assay media consisting of MEM with Earle's salts, 2% FBS and standard concentrations of L-glutamine, penicillin and gentamycin. 5000 cells were seeded in 384-well microtiter plates and incubated at 37° C. in a humidified 5% CO2 incubator for 24 hours to allow for formation of confluent monolayers.
Cell monolayers were infected at a multiplicity of infection (MOI) of approximately 0.005 PFU/cell with virus strains including AdV5. […] Cytopathology was determined by the addition of CellTiter-Glo® reagent (Promega, Madison, Wis.). Concentrations of antiviral test compounds sufficient to reduce CPE by 50% (EC50) were interpolated from the experimental data using standard methods in Microsoft® Excel.

For the molecule `Nc1nc2c(ncn2/C=C2/CC2(CO)CO)c(=O)[nH]1` [Filociclovir, 2-amino-9-{(Z)-[2,2-bis(hydroxymethyl)cyclopropylidene]methyl}-3,9-dihydro-6H-purin-6-one], the “concentration effective to reduce AdV replication (FIG. 1)” value in the data set with Adenovirus 5 (AdV5) (AdV5, tested 0.01 to 100 μM, 'as low as') is at least 0.2 µM. Besides, in the data set on Adenovirus 5 (AdV5), the selectivity ratio was found to be 43. The IC50 with AdV3 (read-out: Mean IC50) worked out at 0.778 µM; with AdV3 (read-out: Median IC50) it was 0.756 µM; in the data set on AdV4 (read-out: Mean IC50), 4.31 µM; with AdV4 (read-out: Median IC50), 4.24 µM; in the data set with AdV5 [1] (read-out: Mean IC50), 4.68 µM; in the data set with AdV5 [1] (read-out: Median IC50), 4.62 µM. Also, the IC50 in the data set with AdV8 (read-out: Mean IC50) came out at 0.496 µM; with AdV8 (read-out: Median IC50) it was 0.485 µM; in the data set on AdV37 (read-out: Mean IC50) it was 3.53 µM; in the data set on AdV37 (read-out: Median IC50), 4.52 µM; with AdV64 (read-out: Mean IC50), 1.86 µM; with AdV64 (read-out: Median IC50) it was 0.424 µM. The IC50 in [2] (setting [4]) was under 5 µM; in data set [2] (setting [5]) it was 0.496 to 4.68 µM. For the same molecule, the “adenovirus positive cultures per total (FIG. 9)” value was “fewer number of adenovirus positive cultures per total on Days 7, 9, and 11” in the data set on AdV5 [3] (setting [6]); “fewer number of adenovirus positive cultures per total on Day 4” with AdV5 [3] (setting [8]); “fewer number of adenovirus positive cultures per total on Days 4, 5, 7, 9, and 11” with AdV5 [3] (setting [9]). Moreover, the “adenovirus titers (FIG. 11)” value with AdV5 [3] (setting [6]) is “significantly lower adenovirus titers on Days 1, 3, 4, 5, 7, 9, and 11”; with AdV5 [3] (setting [8]), “significantly lower adenovirus titers on Days 3, 4, and 5”; in the data set with AdV5 [3] (setting [9]), “significantly lower adenovirus titers on Days 1, 3, 4, 5, 7, 9, and 11”. In addition, in the data set with AdV5 [3] (setting [6]), the “duration of shedding (FIG. 10)” value is on record as “shorter duration of shedding”. In the data set on AdV5 [3] (setting [7]), the “adenovirus positive cultures per total” value is recorded as “fewer number of adenovirus positive cultures per total on Day 4”. In addition, the adenovirus titers result with AdV5 [3] (setting [7]) is “significantly lower adenovirus titers on Days 1, 3, 4, and 5”. In addition, in the data set with AdV5 [3] (setting [9]), the “duration of adenovirus shedding (FIG. 10)” value was “shorter duration of adenovirus shedding”.
As usually defined, the EC50 is the concentration needed to bring the measured effect to its halfway point. Lower therefore signals higher potency in that assay. In the data set on Adenovirus 5 (AdV5) (Human mastadenovirus C, AdV 384 Well CPE, HFF cells, average and SD from five independent experiments), `Nc1ccn(C[C@@H](CO)OCP(=O)(O)O)c(=O)n1` [CDV, cidofovir, reference compound] showed an EC50 of 4 ± 2 µM. Moreover, in the data set on Adenovirus 5 (AdV5), the selectivity ratio is 24. Besides, the IC50 in the data set on AdV3 (read-out: Mean IC50) stood at 5.78 µM; with AdV3 (read-out: Median IC50), 6.02 µM; in the data set with AdV4 (read-out: Mean IC50), 8.71 µM; in the data set with AdV4 (read-out: Median IC50), 9.43 µM; with AdV5 [1] (read-out: Mean IC50), 30.3 µM; in the data set on AdV5 [1] (read-out: Median IC50), 38.8 µM. Moreover, the IC50 stood at 0.487 µM in the data set with AdV8 (read-out: Mean IC50); 0.474 µM in the data set on AdV8 (read-out: Median IC50); 3.96 µM in the data set with AdV37 (read-out: Mean IC50); 0.382 µM with AdV37 (read-out: Median IC50); 4.09 µM in the data set on AdV64 (read-out: Mean IC50); 4.94 µM in the data set on AdV64 (read-out: Median IC50). The IC50 was under 31 µM in [2] (setting [4]) and 0.487 to 30.3 µM in [2] (setting [5]). In the data set with AdV5 [3] (setting [10]), the “adenovirus positive cultures per total (FIG. 9)” value was “fewer number of adenovirus positive cultures per total on Days 7, 9, and 11”. Further, the “adenovirus titers (FIG. 11)” value in the data set with AdV5 [3] (setting [10]) is “significantly lower adenovirus titers on Days 3, 4, 5, 7, 9, and 11”. For the same molecule, in the data set with AdV5 [3] (setting [10]), the “duration of shedding (FIG. 10)” value is listed as “shorter duration of shedding”.

These data come from patent US20220370464A1, “COMPOSITIONS AND METHODS OF TREATING OR PREVENTING OCULAR INFECTIONS WITH FILOCICLOVIR” (Microbiotix, Inc., priority 2019, published 2022).
